Results reported in patent publication US10604484B2, “Indolone compounds and their use as AMPA receptor modulators” (Janssen Pharmaceutica NV, priority 2015, dated 2020).

Molecular target: T1, GluA1o-γ8 (Homo sapiens, UniProt P42261+Q8WXS5)
T1 construct: expressed in transfected cells
Assay: Calcium flux assay (FLIPR), inhibition of glutamate response of GluA1o-γ8 channel in HEK293 cells
Assay type: cell-based
Details: HEK293 cells stably expressing GRIA1o-CACNG8 fusion, 15 μM glutamate, pIC50 = negative log of the IC50 in molar; for IC50: read-out: GluR1-γ8 pIC50 (converted)
From the text: This assay was used to test compounds for their ability to inhibit TARP γ8 dependent AMPA receptor activity. The AMPA receptor is a non-selective cation channel activated by glutamate. Ionotropic glutamate receptors normally desensitize too rapidly to allow detectable calcium influx in a FLIPR assay (Strange et al. (2006). “Functional characterisation of homomeric ionotropic glutamate receptors GluR1-GluR6 in a fluorescence-based high throughput screening assay.” Comb Chem High Throughput Screen 9(2): 147-158). But, this desensitization is incomplete, and a substantial steady-state current remains in the sustained presence of glutamate (Cho et al. (2007). “Two families of TARP isoforms that have distinct effects on the kinetic properties of AMPA receptors and synaptic currents.” Neuron 55(6): 890-904).
An in vitro assay was used to determine the potency of test compounds as inhibitors of the glutamate response of the channel formed by GluA1o-γ8. To ensure a 1:1 stoichiometry of GluA1o and γ8 subunits in the expressed channel, a fusion of the cDNAs for GRIA1o and CACNG8 was used. Following Shi et al (2009) “The stoichiometry of AMPA receptors and TARPs varies by neuronal cell type.” Neuron 62(5): 633-640), the C-terminus of the cDNA for GRIA1o was fused to the N-terminus of the cDNA for γ8. The linker sequence was QQQQQQQQQQEFAT. Channels expressed with this construct appear to have similar properties to channels formed by co-expression of GRIA1o with an excess of CACNG8 (Shi et al. 2009). A clonal cell line in HEK293 cells stably expressing this construct, with a geneticin selection marker, was generated for use in this assay. Cell expressing the GRIA1o-CACNG8 fusion construct were grown in a monolayer in 96- or 384-well microtiter plates. They were washed with assay buffer (135 mM NaCl, 4 mM KCl, 3 mM CaCl2, 1 mM MgCl2, 5 mM glucose, 10 mM HEPES, pH 7.4, 300 mOs) using a Biotek EL405 plate washer. The cells were then loaded with a calcium-sensitive dye (Calcium-5 or Calcium-6, Molecular Devices) and the test compounds at a range of concentrations. Calcium flux following the addition of 15 μM glutamate was monitored using a Molecular Devices FLIPR Tetra.
The fluorescence in each well was normalized to the fluorescence of negative and positive control wells. The negative control wells had no added compounds, and the positive control wells had been incubated with 10 μM CP465022 (a non-subtype-selective AMPA receptor antagonist) (Lazzaro et al. (2002). “Functional characterization of CP-465,022, a selective, noncompetitive AMPA receptor antagonist.” Neuropharmacology 42(2): 143-153). The responses to glutamate as functions of the test compound concentrations were fitted to a four-parameter logistic function. The fitted parameter corresponding to the midpoint was taken to be the potency of inhibition of the compound. The data in Table 4 below illustrates the observed potentcy for the compounds described herein. pIC50 refers to the negative log of the IC50 in molar.

T1 sequence (P42261+Q8WXS5 fused): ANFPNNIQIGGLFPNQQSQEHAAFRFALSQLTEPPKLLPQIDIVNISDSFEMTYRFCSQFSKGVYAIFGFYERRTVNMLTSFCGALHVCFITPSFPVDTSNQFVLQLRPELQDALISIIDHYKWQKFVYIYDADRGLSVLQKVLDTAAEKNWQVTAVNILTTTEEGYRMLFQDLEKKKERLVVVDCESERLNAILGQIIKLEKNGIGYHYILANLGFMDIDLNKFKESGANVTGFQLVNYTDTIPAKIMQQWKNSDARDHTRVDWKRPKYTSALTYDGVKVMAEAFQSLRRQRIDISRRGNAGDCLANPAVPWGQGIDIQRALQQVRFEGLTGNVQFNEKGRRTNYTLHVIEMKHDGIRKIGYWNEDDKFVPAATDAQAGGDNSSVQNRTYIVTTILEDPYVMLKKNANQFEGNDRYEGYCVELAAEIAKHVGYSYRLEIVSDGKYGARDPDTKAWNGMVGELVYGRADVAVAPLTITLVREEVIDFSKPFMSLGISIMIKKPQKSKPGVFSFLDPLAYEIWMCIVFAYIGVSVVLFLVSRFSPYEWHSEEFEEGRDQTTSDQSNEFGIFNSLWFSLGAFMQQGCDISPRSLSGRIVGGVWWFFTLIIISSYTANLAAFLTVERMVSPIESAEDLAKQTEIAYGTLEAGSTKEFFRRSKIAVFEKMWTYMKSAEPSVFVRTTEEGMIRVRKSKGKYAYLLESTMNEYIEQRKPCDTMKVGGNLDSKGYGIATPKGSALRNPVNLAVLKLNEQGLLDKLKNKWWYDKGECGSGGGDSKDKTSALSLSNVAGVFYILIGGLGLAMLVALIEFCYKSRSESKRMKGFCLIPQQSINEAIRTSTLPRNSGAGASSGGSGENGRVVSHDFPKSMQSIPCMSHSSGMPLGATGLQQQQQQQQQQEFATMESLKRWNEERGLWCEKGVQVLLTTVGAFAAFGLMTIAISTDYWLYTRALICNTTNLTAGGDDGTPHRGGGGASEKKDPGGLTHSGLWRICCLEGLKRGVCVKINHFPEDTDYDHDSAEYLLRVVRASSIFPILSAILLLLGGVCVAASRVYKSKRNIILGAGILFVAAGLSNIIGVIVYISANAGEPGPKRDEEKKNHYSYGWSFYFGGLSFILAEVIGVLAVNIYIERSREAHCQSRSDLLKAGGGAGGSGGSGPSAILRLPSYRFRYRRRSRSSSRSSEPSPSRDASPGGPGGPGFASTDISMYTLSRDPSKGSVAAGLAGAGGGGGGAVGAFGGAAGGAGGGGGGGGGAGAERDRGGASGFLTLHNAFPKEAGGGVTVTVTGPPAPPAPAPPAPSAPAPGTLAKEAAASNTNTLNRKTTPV

Structure (SMILES)	IC50	GluR1-γ8 pIC50
CCc1cc(-c2c(C)cccc2F)cc2c1NC(=O)C2 [Example 171, 7-Ethyl-5-(2-fluoro-6-methyl-phenyl)indolin-2-one]	1.58 nM	–
COc1cccc(OC(F)F)c1-c1cc(C)c2c(c1)CC(=O)N2 [Example 130, 5-[2-(Difluoromethoxy)-6-methoxy-phenyl]-7-methyl-indolin-2-one]	12.6 nM	–
Cc1cccc(Cl)c1-c1cc(Cl)c2c(c1)CC(=O)N2 [Example 165, 7-Chloro-5-(2-chloro-6-methyl-phenyl)indolin-2-one]	0.0631 nM	–
O=C1Cc2cc(-c3c(Cl)cccc3OC(F)(F)F)cc(Cl)c2N1 [Example 153, 7-Chloro-5-[2-chloro-6-(trifluoromethoxy)phenyl]indolin-2-one]	0.0794 nM	–
COC1CCN(c2cccc(-c3cc(F)c4c(c3)CC(=O)N4)c2Cl)CC1 [Example 121, 5-(2-Chloro-3-(4-methoxypiperidin-1-yl)phenyl)-7-fluoroindolin-2-one]	> 10000 nM	–
Cc1cc(-c2c(Cl)ccnc2Cl)cc2c1NC(=O)C2 [Example 152, 5-(2,4-Dichloro-3-pyridyl)-7-methyl-indolin-2-one]	3.16 nM	–
Cc1cccc(Cl)c1-c1ccc2c(c1)CC(=O)N2 [Example 3, 5-(2-Chloro-6-methyl-phenyl)indolin-2-one]	100 nM	–
COc1nccc(C)c1-c1cc(Cl)c2c(c1)CC(=O)N2 [Example 162, 7-Chloro-5-(2-methoxy-4-methyl-3-pyridyl)indolin-2-one]	7.94 nM	–
O=C1Cc2cc(-c3c(Cl)cccc3Br)ccc2N1 [Example 2, 5-(2-Bromo-6-chlorophenyl)indolin-2-one]	25.1 nM	–
Cc1cc(-c2c(C)cccc2OC(F)F)cc2c1NC(=O)C2 [Example 129, 5-[2-(Difluoromethoxy)-6-methyl-phenyl]-7-methyl-indolin-2-one]	3.16 nM	–
O=C1Cc2cc(-c3c(Cl)cccc3Cl)ccc2N1 [Example 4, 5-(2,6-Dichlorophenyl)indolin-2-one]	31.6 nM	–
N#Cc1ccc(OC(F)(F)F)c(-c2cc(F)c3c(c2)CC(=O)N3)c1Cl [Example 124, 2-Chloro-3-(7-fluoro-2-oxo-indolin-5-yl)-4-(trifluoromethoxy)benzonitrile]	12.6 nM	–
N#Cc1ccc(Cl)c(-c2cc(Cl)c3c(c2)CC(=O)N3)c1OC(F)(F)F [Example 156, 4-Chloro-3-(7-chloro-2-oxo-indolin-5-yl)-2-(trifluoromethoxy)benzonitrile]	0.0794 nM	–
CCc1cc(-c2c(Cl)cccc2OC(F)(F)F)cc2c1NC(=O)C2 [Example 168, 5-[2-Chloro-6-(trifluoromethoxy)phenyl]-7-ethyl-indolin-2-one]	0.0501 nM	–
Cc1cncc(C)c1-c1cc(F)c2c(c1)CC(=O)N2 [Example 125, 5-(3,5-Dimethyl-4-pyridyl)-7-fluoro-indolin-2-one]	251 nM	–
O=C1Cc2cc(-c3c(Cl)cncc3OC(F)(F)F)cc(Cl)c2N1 [Example 157, 7-Chloro-5-(3-chloro-5-(trifluoromethoxy)pyridin-4-yl)indolin-2-one]	6.31 nM	–
Cc1cccc(OC(F)F)c1-c1cc(F)c2c(c1)CC(=O)N2 [Example 122, 5-[2-(Difluoromethoxy)-6-methyl-phenyl]-7-fluoro-indolin-2-one]	15800 nM	–
COc1cccc(F)c1-c1cc(C)c2c(c1)CC(=O)N2 [Example 139, 5-(2-Fluoro-6-methoxy-phenyl)-7-methyl-indolin-2-one]	126 nM	–
N#Cc1cc(-c2c(Cl)cccc2OC(F)(F)F)cc2c1NC(=O)C2 [Example 175, 5-[2-Chloro-6-(trifluoromethoxy)phenyl]-2-oxo-indoline-7-carbonitrile]	0.631 nM	–
O=C1Cc2cc(-c3c(Cl)cccc3OC(F)(F)F)cc(C(F)(F)F)c2N1 [Example 176, 5-[2-Chloro-6-(trifluoromethoxy)phenyl]-7-(trifluoromethyl)indolin-2-one]	0.501 nM	–
CC(C)(C#N)c1cccc(Cl)c1-c1cc(F)c2c(c1)CC(=O)N2 [Example 119, 2-(3-Chloro-2-(7-fluoro-2-oxoindolin-5-yl)phenyl)-2-methylpropanenitrile]	25.1 nM	–
Cc1cc(-c2c(Cl)cncc2OC(F)(F)F)cc2c1NC(=O)C2 [Example 145, 5-[3-Chloro-5-(trifluoromethoxy)-4-pyridyl]-7-methyl-indolin-2-one]	3.16 nM	–
Cc1cc(-c2cccc(C#N)c2C)cc2c1NC(=O)C2 [Example 134, 2-Methyl-3-(7-methyl-2-oxo-indolin-5-yl)benzonitrile]	100 nM	–
Cc1cc(-c2c(C)ccnc2C)cc2c1NC(=O)C2 [Example 151, 5-(2,4-Dimethyl-3-pyridyl)-7-methyl-indolin-2-one]	631 nM	–
O=C1Cc2cc(-c3c(Cl)cncc3Cl)cc(F)c2N1 [Example 126, 5-(3,5-Dichloro-4-pyridyl)-7-fluoro-indolin-2-one]	316 nM	–
COc1nccc(C)c1-c1cc(C)c2c(c1)CC(=O)N2 [Example 150, 5-(2-Methoxy-4-methyl-3-pyridyl)-7-methyl-indolin-2-one]	31.6 nM	–
Cc1cc(-c2c(Cl)cncc2OC(F)F)cc2c1NC(=O)C2 [Example 146, 5-(3-Chloro-5-(difluoromethoxy)pyridin-4-yl)-7-methylindolin-2-one]	–	8.1
O=C1Cc2cc(-c3c(Cl)cccc3OC(F)(F)F)ccc2N1 [Example 5, 5-[2-Chloro-6-(trifluoromethoxy)phenyl]indolin-2-one]	–	7.8
Cc1cc(-c2c(C)cccc2C#N)cc2c1NC(=O)C2 [Example 138, 3-Methyl-2-(7-methyl-2-oxo-indolin-5-yl)benzonitrile]	2.51 nM	–
